Source: patent US6835867B1, “Allelic series of genomic modifications in cells” (priority 1998, dated 2004)
Values joined by “and” are separate entries in the source; they are usually repeats but may differ in a detail not shown here. Equal entries are not always repeated. “Also recorded” adds a separate entry of the source.

How the values were obtained:
[1] = system: Mouse ES cells (129/Sv+Tyr, +p); experiment: Survival of ES cells after 5 hour ENU treatment (colony counting); format: cell-based; conditions: for survival: 5 hours, counted after 3 days of culture
Protocol: Mouse ES cells (129/Sv+^Tyr, +^p) were used. Cells were grown in culture medium [MEM (Gibco) supplemented with 15% heat-inactivated fetal calf serum, LIF, and 10 μM β-mercaptoethanol. Cells were routinely grown on 100-mm petri dishes and cultivated at 37° C. in a humidified atmosphere of 5% CO2 in air. For subculturing, cells were disassociated with HBSS containing 0.25% trypsin and 0.02% EDTA. After a 3-minute incubation at room temperature, cells were resuspended in culture medium and cell numbers determined using a hemocytometer.
The plating efficiency was determined by plating 2×10^3 cells per 100-mm dish, fixing the cells after 6-days with methanol, staining with 0.01% crystal violet and scoring colonies. Colonies were scored for the calculation of plating efficiency as percent of the inoculated cell number. The plating efficiencies were approximately 20%.
In the first protocol, actively growing ES cells were trypsinized and plated at 5×10^5 cells per T25 flask and after 1 day preincubation treated for 5 hours with 0.3 mg/ml, 0.4 mg/ml or 0.5 mg/ml ENU (dissolved in medium without FCS by vigorous shaking and filter sterilization with 0.2 μm cellulose acetate filters immediately before use). Control cells and cells which had been treated with ENU were washed three times with PBS and the number of surviving cells determined after 3 days of culture in culture medium by plating 2,000 cells from control and from ENU-treated flasks and counting surviving colonies as described above. […] Surviving EA cells which had been treated with 0.3 mg/ml ENU were subcultured at 3:1 onto 60-mm petri dishes in the presence (set 1) and absence (set 2) of primary embryothic fibroblasts (PMEFs). ES cells grown on PMEFs (set 1) were cultured for 3 days, subcultured at 3:1 onto 60-mm petri dishes without PMEFs, trypsinized, plated at 4×10^5 cells per 100-mm plate without PMEFs and grown for 2 days. ES cells grown in the absence of PMEFs (set 2) were trypsinized-after 5 days in culture and plated at 4×10^5 cells per 100-mm plate without PMEFs. Cells (set 1 and set 2) were subsequently grown for 1 day prior to the addition of 10 μM 6-TG to the culture medium and further incubated for an additional 6 days in the presence of 6-TG. The number of 6-TG resistant colonies was calculated, and individual colonies were separately plated in a 96-well microtiter dish.
(§1) In the second protocol, actively growing ES cells were trypsinized and plated at two densities (1×10^5 and 0.5×10^5 cells/well) in 24-well tissue culture plates instead of T25 flasks. After a one-day preincubation period, cells were treated for 5 hours with 0.3 mg/ml or 0.4 mg/ml ENU (as described above) and subsequently treated as described in Table 2.

[2] = system: hypoxanthine guanine phosphoribosyltransferase (Hprt) gene in mouse embryonic stem (ES) cells; experiment: ENU-induced Hprt-inactivating mutations, 6-TG selection, Protocol 1; format: cell-based; conditions: 0.3 mg/ml ENU
[3] = system: hypoxanthine guanine phosphoribosyltransferase (Hprt) gene in mouse embryonic stem (ES) cells; experiment: ENU-induced Hprt-inactivating mutations, 6-TG selection, Protocol 2 (24-well plates); format: cell-based
Protocol: as §1, with “2. [table]” for “2.”

[4] = literature statement; cited from earlier work

Question: What does the source list for `CCN(N=O)C(N)=O` [ENU, N-ethyl-N-nitrosurea]?
Answer: survival ([1]; 0.3 mg/ml ENU): 10%; survival ([1]; 0.4 mg/ml ENU): less than 5%; colonies surviving ([1]; 0.4 mg/ml ENU, Plate 3, 5 days after plating, plate discarded): Discarded, very few; survival ([1]; 0.5 mg/ml ENU): 0%; Total colonies (+PMEF plates) ([2]; 10 μM 6-TG, sum of 6 plates): 21; Total colonies (−PMEF plates) ([2]; 10 μM 6-TG, sum of 6 plates): 77; Mutation Frequency Maximum (−PMEF plates) ([2]; Hprt locus): 1/623; No. Surviving Colonies (−PMEF plates), 6-TG selection (Hprt deficient), per plate ([2]; set 2 grown without PMEFs, 10 μM 6-TG, plates 1-6): 14 and 15 and 12 and 9; Total colonies ([3]; 0.3 mg/ml ENU, Plate 1): Total: 23 colonies; No. colonies/plate ([3]; 0.3 mg/ml ENU, Plate 1, day 16, individual 60-mm dishes): Plate 2: 3 colonies; also recorded: Plate 3: 5 colonies; also recorded: Plate 5: 1 colony colonies; also recorded: Plate 6: 1 colony colonies; also recorded: Plate 7: 2 colonies; also recorded: Plate 8: 2 colonies; also recorded: Plate 9: 4 colonies; plates that yielded colonies after 6-thioguanine ([3]; 0.3 mg/ml ENU, Plate 1, day 16, of 24 dishes): 9 plates yielded colonies,; Total colonies ([3]; 0.3 mg/ml ENU, Plate 2): Total: 12 colonies; No. colonies/plate ([3]; 0.3 mg/ml ENU, Plate 2, day 16, individual 60-mm dishes): Plate 2: 1 colony colonies; also recorded: Plate 3: 2 colonies; also recorded: Plate 4: 1 colony colonies; also recorded: Plate 5: 4 colonies; also recorded: Plate 6: 2 colonies; plates that yielded colonies after 6-thioguanine ([3]; 0.3 mg/ml ENU, Plate 2, day 16, of 24 dishes): 6 plates yielded colonies,; Mutation frequency maximum ([3]; 0.4 mg/ml ENU, Plate 4): 1/800; Total colonies ([3]; 0.4 mg/ml ENU, Plate 4): Total: 22 colonies; No. colonies/plate ([3]; 0.4 mg/ml ENU, Plate 4, day 17, individual 60-mm dishes): Plate 1: 14 colonies; also recorded: Plate 2: 18 colonies; plates that yielded colonies after 6-thioguanine ([3]; 0.4 mg/ml ENU, Plate 4, day 17, of 24 dishes): 2 plates yielded colonies, 22; efficiency in generating mutations relative to other agents [4]: at least 10 fold
